Where “and” joins values, the source holds several entries; their conditions need not be identical. Equal entries are not always repeated.
Legend:
[1] = Ocular pharmacokinetics of formulations, Example 20-4; assay type: in vivo, Dutch Belted rabbits; settings: TRIS 0.60%, glycerol 2%, VitK3 1 μM, Day 5, 1 hr post dose
Experimental: The study design (Table 18-1) consisted of forty-nine (49) Dutch Belted rabbits, each receiving a 30 μL bilateral topical ocular dose.
Ocular sampling occurred one hour following the first daily dose on Day 5 for all groups. Whole blood samples using K2EDTA as an anticoagulant were collected from all animals on Day 5, 1 hour post dose. The whole blood was placed on ice until samples were spun in a centrifuge to separate the plasma. Aqueous humor, conjunctiva, cornea, central retina, peripheral retina, central choroid, and peripheral choroid samples were collected following necropsy. Samples were then frozen at −70° C. or lower. For all Groups 1-16, plasma, central retina, central choroid, and cornea samples were assayed for PAN-90806.

[2] = target: AURKB (Aurora B) (Homo sapiens, UniProt Q96GD4); experiment: In vitro inhibition of tyrosine kinases; assay type: biochemical; settings: read-out: Mean % Inhibition at 1 μM Compound-I; 1 μM (568.9 ng/mL)
Chain of AURKB (Aurora B) (Q96GD4 whole entry, species assumed): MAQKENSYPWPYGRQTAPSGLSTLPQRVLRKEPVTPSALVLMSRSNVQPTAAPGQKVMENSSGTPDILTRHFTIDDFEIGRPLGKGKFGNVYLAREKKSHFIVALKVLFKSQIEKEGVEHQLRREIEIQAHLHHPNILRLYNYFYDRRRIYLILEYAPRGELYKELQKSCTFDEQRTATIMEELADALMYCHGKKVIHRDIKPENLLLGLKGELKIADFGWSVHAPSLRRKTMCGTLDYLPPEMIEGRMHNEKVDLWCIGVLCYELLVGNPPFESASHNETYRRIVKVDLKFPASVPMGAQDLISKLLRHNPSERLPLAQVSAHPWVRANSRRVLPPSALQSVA

[3] = 5-day PK with topical ocular Compound-I in cyclodextrin-based solutions (Example 6); assay type: in vivo, Dutch-Belted rabbits; settings: HPβCD solutions; for concentration at 1 h: q.d. groups (4, 5a, 6a, 7, 8, 11, 12), 4 days, 1 hr after first daily dose day 5
Experimental: All doses were administered with ±1 hour of the scheduled dose time, except on day 1 for Groups 1, 4, and 10. The first dose on day 1 was administered at 12:00 PM, and the second dose (for Groups 1 and 10) was administered approximately 4 hours after. This was due to delayed arrival of formulations. All other dosing for these groups was as scheduled. On day 1, Groups 4-8, and 11-12 received one dose (q.d.) for four (4) days. On days 1 through 4, Groups 1-3, and 9-10 received b.i.d. dosing approximately 8 hours apart for four (4) days.
Ocular sampling occurred one hour following the first daily dose on day 5 for all groups, except Groups 5b and 6b, where ocular sampling occurred 24 hours after the first daily dose on day 4.
Blood samples for plasma collection were obtained just prior to scheduled euthanasia for all animals. […] Cornea, central retina, and central choroid samples from groups 1-12 were assayed. Aqueous humor, peripheral retina, and peripheral choroid samples were not assayed.

[4] = target: ABL1 E255K (Homo sapiens, UniProt P00519, E255K); experiment: In vitro inhibition of tyrosine kinases; assay type: biochemical; settings: read-out: Mean % Inhibition at 1 μM Compound-I; 1 μM (568.9 ng/mL)
[5] = target: MAP4K4 (HGK) (Homo sapiens, UniProt O95819); experiment: In vitro inhibition of tyrosine kinases; assay type: biochemical; settings: read-out: Mean % Inhibition at 1 μM Compound-I; 1 μM (568.9 ng/mL)
Chain of MAP4K4 (HGK) (O95819 whole entry, species assumed): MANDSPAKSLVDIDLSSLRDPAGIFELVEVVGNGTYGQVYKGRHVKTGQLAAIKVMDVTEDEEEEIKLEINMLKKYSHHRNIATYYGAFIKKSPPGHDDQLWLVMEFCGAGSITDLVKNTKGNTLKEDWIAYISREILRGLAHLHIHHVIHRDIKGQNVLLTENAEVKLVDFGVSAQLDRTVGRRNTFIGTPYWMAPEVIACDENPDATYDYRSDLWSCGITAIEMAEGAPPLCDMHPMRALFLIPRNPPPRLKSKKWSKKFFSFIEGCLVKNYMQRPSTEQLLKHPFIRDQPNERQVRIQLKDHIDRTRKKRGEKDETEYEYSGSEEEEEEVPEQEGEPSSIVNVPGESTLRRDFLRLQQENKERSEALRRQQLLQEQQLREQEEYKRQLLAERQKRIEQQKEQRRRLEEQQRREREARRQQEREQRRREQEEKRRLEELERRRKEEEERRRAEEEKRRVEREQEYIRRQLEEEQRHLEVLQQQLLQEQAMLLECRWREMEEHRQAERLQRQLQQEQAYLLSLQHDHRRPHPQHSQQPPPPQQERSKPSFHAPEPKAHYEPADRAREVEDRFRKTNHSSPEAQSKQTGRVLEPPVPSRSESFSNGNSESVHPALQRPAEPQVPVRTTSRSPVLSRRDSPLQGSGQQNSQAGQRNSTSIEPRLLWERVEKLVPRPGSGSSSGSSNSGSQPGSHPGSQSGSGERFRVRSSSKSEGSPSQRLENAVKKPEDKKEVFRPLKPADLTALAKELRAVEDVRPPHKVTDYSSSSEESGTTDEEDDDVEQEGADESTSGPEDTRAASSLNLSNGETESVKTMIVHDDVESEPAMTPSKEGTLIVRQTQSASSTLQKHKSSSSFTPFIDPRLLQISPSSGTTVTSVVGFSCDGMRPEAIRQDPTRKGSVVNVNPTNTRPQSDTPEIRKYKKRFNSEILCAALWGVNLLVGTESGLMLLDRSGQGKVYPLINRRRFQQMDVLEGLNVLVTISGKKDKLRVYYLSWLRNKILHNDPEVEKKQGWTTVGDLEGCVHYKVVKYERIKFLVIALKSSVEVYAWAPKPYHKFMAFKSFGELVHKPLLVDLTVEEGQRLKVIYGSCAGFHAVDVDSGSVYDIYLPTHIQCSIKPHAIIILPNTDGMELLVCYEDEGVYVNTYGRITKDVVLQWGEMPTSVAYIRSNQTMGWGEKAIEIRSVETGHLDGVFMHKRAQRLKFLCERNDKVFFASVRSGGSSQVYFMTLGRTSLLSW

[6] = target: EPHB-1 (Homo sapiens, UniProt P54762); experiment: In vitro inhibition of tyrosine kinases; assay type: biochemical; settings: read-out: Mean % Inhibition at 1 μM Compound-I; 1 μM (568.9 ng/mL)
Chain of EPHB-1 (P54762 18-984, species assumed): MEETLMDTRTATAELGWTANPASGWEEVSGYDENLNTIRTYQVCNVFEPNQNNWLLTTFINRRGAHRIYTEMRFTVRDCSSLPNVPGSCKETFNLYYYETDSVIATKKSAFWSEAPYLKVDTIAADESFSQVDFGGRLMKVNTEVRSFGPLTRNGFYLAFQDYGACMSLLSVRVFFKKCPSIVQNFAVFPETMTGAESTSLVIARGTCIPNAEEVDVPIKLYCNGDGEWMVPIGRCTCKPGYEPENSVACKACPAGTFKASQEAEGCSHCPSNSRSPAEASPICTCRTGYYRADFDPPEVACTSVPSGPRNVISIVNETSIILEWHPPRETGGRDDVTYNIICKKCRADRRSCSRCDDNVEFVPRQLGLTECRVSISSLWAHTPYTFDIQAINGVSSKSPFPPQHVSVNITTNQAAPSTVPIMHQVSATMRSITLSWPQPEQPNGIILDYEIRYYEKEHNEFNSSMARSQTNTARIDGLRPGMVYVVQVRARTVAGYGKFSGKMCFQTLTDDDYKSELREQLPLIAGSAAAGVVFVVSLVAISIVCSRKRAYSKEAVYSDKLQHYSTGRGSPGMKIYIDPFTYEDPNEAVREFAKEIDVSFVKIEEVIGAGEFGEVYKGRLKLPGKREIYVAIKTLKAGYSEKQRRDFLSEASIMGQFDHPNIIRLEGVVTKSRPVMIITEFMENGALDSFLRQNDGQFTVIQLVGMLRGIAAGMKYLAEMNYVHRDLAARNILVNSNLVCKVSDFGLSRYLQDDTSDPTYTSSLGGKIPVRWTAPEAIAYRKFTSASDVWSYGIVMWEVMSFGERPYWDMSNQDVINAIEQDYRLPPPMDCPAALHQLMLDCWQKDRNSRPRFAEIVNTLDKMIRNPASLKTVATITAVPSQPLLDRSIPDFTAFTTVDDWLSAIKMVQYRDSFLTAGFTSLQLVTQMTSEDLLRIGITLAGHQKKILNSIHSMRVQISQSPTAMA

[7] = target: ABL1 T315I (Homo sapiens, UniProt P00519, T315I); experiment: In vitro inhibition of tyrosine kinases; assay type: biochemical; settings: read-out: Mean % Inhibition at 1 μM Compound-I; 1 μM (568.9 ng/mL)
[8] = system: HUVECs; experiment: Inhibition of VEGF-stimulated mitogenesis in HUVECs; assay type: cell-based; settings: Homo sapiens, HUVEC

Compound Cl.NC(=O)c1c(OCc2c(F)cc(Br)cc2F)nsc1NC(=O)NCCCCN1CCCC1 [Compound-I, 3-[(4-bromo-2,6-difluorophenyl)methoxy]-5-[[[[4-(1-pyrrolidinyl)butyl]amino]carbonyl]amino]-4-isothiazolecarboxamide hydrochloride] has a Plasma concentration ([1]; Group 10: 4 mg/mL Salt suspension, PSD 30 μm/XL, HEC 0.2%, Tylox 0.04%, pH 7, QD) of 5.28 nM, a concentration at 1 h ([1]; Group 10: 4 mg/mL Salt suspension, PSD 30 μm/XL, HEC 0.2%, Tylox 0.04%, pH 7, QD, read-out: Central Choroid concentration) of 166 nM and a concentration at 1 h ([1]; Group 10: 4 mg/mL Salt suspension, PSD 30 μm/XL, HEC 0.2%, Tylox 0.04%, pH 7, QD, read-out: Central Retina concentration) of 50.2 nM. It also gave a Plasma concentration ([1]; Group 11: 4 mg/mL Salt suspension, PSD 30 μm/XL, HEC 0.3%, HPMC 0.08%, pH 6, QD) of 4.65 nM, a concentration at 1 h ([1]; Group 11: 4 mg/mL Salt suspension, PSD 30 μm/XL, HEC 0.3%, HPMC 0.08%, pH 6, QD, read-out: Central Choroid concentration) of 154 nM and a concentration at 1 h ([1]; Group 11: 4 mg/mL Salt suspension, PSD 30 μm/XL, HEC 0.3%, HPMC 0.08%, pH 6, QD, read-out: Central Retina concentration) of 79.6 nM. The Plasma concentration ([1]; Group 12: 4 mg/mL Salt suspension, PSD 30 μm/XL, HEC 0.2%, HPMC 0.08%, pH 6, QD) was 3.66 nM, the concentration at 1 h ([1]; Group 12: 4 mg/mL Salt suspension, PSD 30 μm/XL, HEC 0.2%, HPMC 0.08%, pH 6, QD, read-out: Central Choroid concentration) was 137 nM and the concentration at 1 h ([1]; Group 12: 4 mg/mL Salt suspension, PSD 30 μm/XL, HEC 0.2%, HPMC 0.08%, pH 6, QD, read-out: Central Retina concentration) was 49 nM. It also gave a Plasma concentration ([1]; Group 13: 4 mg/mL Salt suspension, PSD Native (≈50) μm/XXL, HEC 0.2%, HPMC 0.08%, pH 6, QD) of 5.24 nM, a concentration at 1 h ([1]; Group 13: 4 mg/mL Salt suspension, PSD Native (≈50) μm/XXL, HEC 0.2%, HPMC 0.08%, pH 6, QD, read-out: Central Choroid concentration) of 234 nM and a concentration at 1 h ([1]; Group 13: 4 mg/mL Salt suspension, PSD Native (≈50) μm/XXL, HEC 0.2%, HPMC 0.08%, pH 6, QD, read-out: Central Retina concentration) of 67.7 nM. For the same compound, the Plasma concentration ([1]; Group 14: 4 mg/mL Salt suspension, PSD 3 μm/Large, HEC 0.2%, HPMC 0.08%, pH 6, QD) was 4.99 nM, the concentration at 1 h ([1]; Group 14: 4 mg/mL Salt suspension, PSD 3 μm/Large, HEC 0.2%, HPMC 0.08%, pH 6, QD, read-out: Central Choroid concentration) was 241 nM and the concentration at 1 h ([1]; Group 14: 4 mg/mL Salt suspension, PSD 3 μm/Large, HEC 0.2%, HPMC 0.08%, pH 6, QD, read-out: Central Retina concentration) was 99.2 nM. The Plasma concentration ([1]; Group 15: 4 mg/mL Salt suspension, PSD 30 μm/XL, HEC 0.3%, HPMC 0.08%, pH 7, QD) was 3.25 nM, the concentration at 1 h ([1]; Group 15: 4 mg/mL Salt suspension, PSD 30 μm/XL, HEC 0.3%, HPMC 0.08%, pH 7, QD, read-out: Central Choroid concentration) was 200 nM and the concentration at 1 h ([1]; Group 15: 4 mg/mL Salt suspension, PSD 30 μm/XL, HEC 0.3%, HPMC 0.08%, pH 7, QD, read-out: Central Retina concentration) was 53.2 nM. It also gave an inhibition at 1 µM [2] of 82%, a concentration at 24 h ([3]; Dutch-Belted, rabbit, central choroid, topical, 30 μL bilateral, q.d. groups 5b, 6b, 24 hr after first daily dose day 4) of 194 nM and a concentration at 1 h ([3]; Dutch-Belted, rabbit, central choroid, topical, 30 μL bilateral, read-out: Average Concentration Central Choroid) of 203 nM. For the same compound, the concentration at 1 h ([3]; Dutch-Belted, rabbit, central retina, topical, 30 μL bilateral, read-out: Average Concentration Central Retina) was 48.1 nM, the “Average Concentration Central Retina” value ([3]; q.d. groups 5b, 6b, 24 hr after first daily dose day 4) was “<LLOQ” and the inhibition at 1 µM [4] was 90%. The inhibition at 1 µM [5] was 100%, the inhibition at 1 µM [6] was 83% and the inhibition at 1 µM [7] was 101%. The IC50 [8] was 14.1 nM and 0.008 µg/mL.

Source: US10183014B2, “Ocular formulations for drug-delivery and protection of the anterior segment of the eye” (PanOptica, Inc., priority 2014, dated 2019)
